Values of other authors, collected in patent publication US20100056493A1, “MODIFIED RELEASE PHARMACEUTICAL COMPOSITION AND A PROCESS OF MAKING THE SAME” (priority 2007, published 2010).

Legend:
[1] = given in brackets after the drug name; no method stated
[2] = test system: de novo kidney allograft recipients; details: P=NS
[3] = 720 mg mycophenolic acid as mycophenolate sodium twice daily or 1000 mg MMF twice daily

| SMILES | pH [1] | frequency of dosage reductions, discontinuation, or temporary interruptions of therapy secondary to GI toxicities [2, 3] | incidence of GI adverse events [2, 3] | overall incidence of efficacy failure (biopsy-proven acute rejection, graft loss, death, or loss to follow-up) ([2]; at 6 months, 720 mg mycophenolic acid as mycophenolate sodium twice daily (n=213) or 1000 mg MMF twice daily (n=210)) | BPAR rates ([2]; at 12 months, 720 mg mycophenolic acid as mycophenolate sodium twice daily or 1000 mg MMF twice daily) |
| --- | --- | --- | --- | --- | --- |
| COc1c(C)c2c(c(O)c1C/C=C(\C)CCC(=O)OCCN1CCOCC1)C(=O)OC2 [MMF, mycophenolate mofetil] | 7.2 | 17.6% | 78.1% | 28.1% | 24.3% |
| O=C(O)/C=C/C(=O)O.OCCOCCN1CCN(C2=Nc3ccccc3Sc3ccccc32)CC1 [Quetiapine fumarate, 2-[2-(4-dibenzo[b,f][1,4]thiazepin-11-yl-1-piperazinyl)ethoxy]-ethanol fumarate] | 5.4 |  |  |  |  |
| COc1c(C)c2c(c(O)c1C/C=C(\C)CCC(=O)O)C(=O)OC2 [mycophenolate sodium] |  | 13.1% | 78.4% |  |  |
